Drawing on patent EP1082127B1 (WARNER-LAMBERT COMPANY LLC, priority 1998, dated 1999), this text covers IC50 and Ki for 14 molecules.

SMILES strings stand for the structures.

Experiment [1] deals with T1, ICE (Homo sapiens, UniProt P29466).
T1 sequence (P29466 120-297 limits assumed): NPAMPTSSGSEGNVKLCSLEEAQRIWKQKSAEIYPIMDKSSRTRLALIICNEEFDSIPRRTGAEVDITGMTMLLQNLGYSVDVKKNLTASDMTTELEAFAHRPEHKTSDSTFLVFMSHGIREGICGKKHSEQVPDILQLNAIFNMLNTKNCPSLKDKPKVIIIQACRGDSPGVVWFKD
T1 sequence (P29466 317-404 limits assumed): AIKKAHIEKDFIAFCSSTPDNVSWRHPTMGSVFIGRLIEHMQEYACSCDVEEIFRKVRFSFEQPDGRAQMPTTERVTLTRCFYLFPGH
The experiment is described as follows: ICE Colorimetric Dose-Response (IC50) Assay. Format: biochemical. Conditions: 60 minutes preincubation, 50 µM Ac-Tyr-Val-Ala-Asp-pNA, 25°C. The method, then:
(§1) Diluted inhibitor stocks are prepared by two-fold serial dilution from a primary stock whose concentration is selected (based on screening results or on prior attempts at IC50 evaluation) to achieve approximately 95% inhibition in the most concentrated well. Aliquots of each dilution are transferred to a microtitre plate in triplicate.
(§2) ICE enzyme is diluted to approximately 24 nM in HGE buffer (100 mM Hepes pH 7.5, 0.5 mM EDTA, 20% glycerol, 0.1% Bovine Serum Albumin (BSA), and activated by adding dithiothreitol (DTT) to a final concentration of 5 mM. The activated enzyme is then aliquoted into wells containing inhibitor or vehicle, and the plate is preincubated for 60 minutes at ambient temperature. Substrate (Ac-Tyr-Val-Ala-Asp-pNA) is added to each well to a final concentration of 50 µM, and plates are placed in the microtitre plate-reader thermostated to 25°C. Beginning 5 minutes after addition of substrate, absorbance (405 nm) of wells is monitored for 1 hour, and activity is calculated as the mean rate of change in absorbance during this interval.

Experiment [2] concerns IL-1β production in human peripheral blood mononuclear cells (PBMCs). Put plainly: PBMC Cellular Assay - IC50 Determinations (LPS-stimulated IL-1β production, ELISA). Format: cell-based. Conditions: human PBMCs stimulated overnight with 10 ng/mL LPS, mature IL-1β by ELISA. The text has this:
Further evidence that compounds of Formula I are inhibitors of ICE is provided by their ability to inhibit IL-1β production in human peripheral blood mononuclear cells (PBMCs) as described herein. PBMCs are isolated from heparinized blood by centrifugation over a ficoll cushion, then washed three times with phosphate-buffered saline. PBMCs are suspended in a medium containing RPMI 1640 with glutamine, penicillin, streptomycin, and 2% human AB serum, then plated at 10^6 cells per well in 96-well flat bottom plates. PBMCs are stimulated overnight with 10 ng/mL of lipopolysaccharide (LPS, E. coli strain 0111:B4; Calbiochem) in the presence or absence of a compound of Formula I. Medium is harvested, and the level of mature IL-1β was determined using an ELISA kit from R&D Systems. Cells were cultured for an additional 4 hours in the presence of 3-(4,5-dimethylthiazol-2-yl)-2,5-diphenyltetrazolium bromide (MTT) to determine viability.
(ELISA stands for enzyme-linked immunosorbent assay.)

The target of experiment [3] is T1, ICE. Put plainly: ICE inhibition, Ki determination (fluorogenic substrate Ac-Tyr-Val-Ala-Asp-AMC). Conditions: 15 µM Ac-Tyr-Val-Ala-Asp-AMC, 0.5 nM enzyme, 30°C, reversible competitive model. Format: biochemical. The method, then: Serial dilutions of each compound of the invention are prepared using an initial 8-fold dilution of a DMSO stock into HGE (100 mM HEPES, 20% glycerol v/v, 0.5 mM EDTA), followed by seven serial 2-fold dilutions into HGE + 12.5% DMSO. Ten microliters of diluted stocks or of vehicle (HGE + 12.5% DMSO) are placed in triplicate onto a 96-well microtiter plate. Enzyme is diluted into assay buffer (HGE, 5 mM DTT, 15 µM Ac-Tyr-Val-Ala-Asp-AMC; 0.5 nM final enzyme concentration, pre-warmed to 30°C), and this reaction mixture is added to the plate at 90 µL/well. Substrate hydrolysis is monitored for 300 seconds at 30°C using 385 and 460 nm excitation and emission filters, respectively. Triplicate curves are averaged, and slopes are evaluated by linear regression. To evaluate Ki, plots of percent inhibition vs inhibitor concentration are fit by non-linear regression to a reversible, competitive model: [formula] where the competition factor is (1 + [S]/KM) = 2.

Experiment [4] concerns the target T2, Ich-2 enzyme (Homo sapiens, UniProt P49662).
T2 sequence (P49662 81-270 limits assumed): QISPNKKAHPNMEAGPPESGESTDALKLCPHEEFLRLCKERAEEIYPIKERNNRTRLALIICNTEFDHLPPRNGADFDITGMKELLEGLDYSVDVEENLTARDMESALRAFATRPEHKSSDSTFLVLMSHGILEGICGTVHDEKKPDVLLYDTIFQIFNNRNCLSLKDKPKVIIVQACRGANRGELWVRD
T2 sequence (P49662 290-377 limits assumed): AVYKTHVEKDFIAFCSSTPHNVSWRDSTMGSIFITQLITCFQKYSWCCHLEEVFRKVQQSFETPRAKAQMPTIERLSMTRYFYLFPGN
The experiment is described as follows: Ich-2 Colorimetric Dose-Response (IC50) Assay. Conditions: enzyme 64 nM, 60 µM Ac-Leu-Glu-Val-Asp-pNA; read-out: ICH2 IC50 (Caspase 4). It counts as biochemical. The method, then:
as §1, §2
Inhibition of Ich-2 enzyme is assayed as described above for ICE, except that enzyme is used at 64 nM, and 60 µM of the Ich-2-specific substrate Ac-Leu-Glu-Val-Asp-pNA is used instead of the ICE substrate Ac-Tyr-Val-Ala-Asp-pNA.

Regarding `CC(CC(=O)NCCc1ccccc1)C(=O)NC(CC(=O)O)C(=O)CNS(=O)(=O)CCc1ccccc1` (centres unmarked) [Example 1, 3-(2-Methyl-3-phenethylcarbamoyl-propionylamino)-4-oxo-5-(2-phenylethanesulfonylamino)-pentanoic acid], the half-inhibitory concentration (IC50) (commonly the midpoint of a concentration-inhibition curve) turned out to be 14.5 µM in experiment [1], 82.5 µM in experiment [2] and 89 µM in experiment [4]. In addition, in experiment [3], the affinity corresponds to a Ki of 1.6 µM.
Take `CC(C)C(CC(N)=O)C(=O)NC(CC(=O)O)C(=O)CNS(=O)(=O)CC12CCC(CC1=O)C2(C)C` (centres unmarked) [Example 2, 3-(2-Carbamoylmethyl-3-methyl-butyrylamino)-5-(7,7-dimethyl-2-oxo-bicyclo[2.2.1]hept-1-ylmethanesulfonylamino)-4-oxo-pentanoic acid]: the IC50 in experiment [1] was found to be 0.79 µM; in experiment [2], 6.25 µM; in experiment [4], 3.31 µM. Also, in experiment [3], the Ki – broadly, a dissociation constant, usually derived from enzyme kinetics or from competition with a known ligand – worked out at 0.106 µM.
On the same counts, the results for `CC(C)C(CC(=O)NCCc1ccccc1)C(=O)NC(CC(=O)O)C(=O)CNS(=O)(=O)CC12CCC(CC1=O)C2(C)C` (centres unmarked) [Example 3, 5-(7,7-Dimethyl-2-oxo-bicyclo[2.2.1]hept-1-ylmethanesulfonylamino)-3-[3-methyl-2-(phenethylcarbamoyl-methyl)-butyrylamino]-4-oxo-pentanoic acid] are 0.4 µM, 3 µM, 4.65 µM and 0.045 µM.
Take `CC(C)C(CC(N)=O)C(=O)NC(CC(=O)O)C(=O)CNS(=O)(=O)CCc1ccccc1` (centres unmarked) [Example 4, 3-(2-Carbamoylmethyl-3-methyl-butyrylamino)-4-oxo-5-(2-phenyl-ethanesulfonyl-amino)-pentanoic acid]: the IC50 came out at 16.8 µM in experiment [1], 65 µM in experiment [2] and 9.72 µM in experiment [4]. The Ki in experiment [3] is 2.18 µM.
Taken in the same sequence, the figures for `CC(C)C(CC(=O)NCCc1ccccc1)C(=O)NC(CC(=O)O)C(=O)CNS(=O)(=O)CCc1ccccc1` (centres unmarked) [Example 5, 3-[3-Methyl-2-(phenethylcarbamoyl-methyl)-butyrylamino]-4-oxo-5-(2-phenyl-ethanesulfonylamino)-pentanoic acid] were 3.55 µM, 35 µM, 9.02 µM and 0.336 µM.
For the molecule `CC(C)C(CC(=O)NCCc1ccccc1)C(=O)NC(CC(=O)O)C(=O)CNS(=O)(=O)CC12CCC(CC1)C2(C)C` (centres unmarked) [Example 6, 5-(7,7-Dimethyl-bicyclo[2.2.1]hept-1-ylmethanesulfonylamino)-3-[3-methyl-2-(phenethylcarbamoyl-methyl)-butyrylamino]-4-oxo-pentanoic acid], the 50% inhibitory concentration (IC50) turned out to be 1.06 µM in experiment [1], 3.25 µM in experiment [2] and 9.59 µM in experiment [4]. Further, the Ki in experiment [3] came to 0.142 µM.
Taken in the same sequence, the figures for `CC(C)[C@H](CC(=O)NCCCc1ccccc1)C(=O)N[C@H](C=O)CC(=O)O` [Example 7, (S,S)-3-{3-Methyl-2-[(3-phenyl-propylcarbamoyl)-methyl]-butyrylamino}-4-oxo-butyric acid] were 0.444 µM, 6 µM, 20.7 µM and 0.115 µM.
On the same counts, the results for `CC(C)C(CC(=O)NCCOc1ccccc1)C(=O)NC(CC(=O)O)C(=O)CNS(=O)(=O)CC12CCC(CC1=O)C2(C)C` (centres unmarked) [Example 9, 5-(7,7-Dimethyl-2-oxo-bicyclo[2.2.1]hept-1-ylmethanesulfonylamino)-3-{3-methyl-2-[(2-phenoxy-ethylcarbamoyl)-methyl]-butyrylamino}-4-oxo-pentanoic acid] are 0.053 µM, 2.1 µM, 4.22 µM and 0.0234 µM.
Regarding `CC(C)C(CC(=O)NCCc1ccccc1)C(=O)NC(CC(=O)O)C(=O)CSCCCc1ccccc1` (centres unmarked) [Example 10, 3-[3-Methyl-2-(phenethylcarbamoyl-methyl)-butyrylamino]-4-oxo-5-(3-phenyl-propylsulfanyl)-pentanoic acid], the IC50 came to 3.27 µM in experiment [1], 21.5 µM in experiment [2] and 25.7 µM in experiment [4]. In experiment [3], the Ki was found to be 0.539 µM.
On to `CC(C)C(CC(=O)N(C)CCc1ccccc1)C(=O)NC(CC(=O)O)C(=O)CNS(=O)(=O)CC12CCC(CC1=O)C2(C)C` (centres unmarked) [Example 11, 5-(7,7-Dimethyl-2-oxo-bicyclo[2.2.1]hept-1-ylmethanesulfonylamino)-3-{3-methyl-2-[(methyl-phenethyl-carbamoyl)-methyl]-butyrylamino}-4-oxopentanoic acid], for which the 50% inhibitory concentration (IC50) worked out at 0.44 µM in experiment [1], 5.5 µM in experiment [2] and 15.7 µM in experiment [4]. For the same molecule, the Ki in experiment [3] came to 0.058 µM.
`CC(C)C(CC(=O)NCCCc1ccccc1)C(=O)NC(CC(=O)O)C(=O)CNS(=O)(=O)CC12CCC(CC1=O)C2(C)C` (centres unmarked) [Example 12, 5-(7,7-Dimethyl-2-oxo-bicyclo[2.2.1]hept-1-ylmethanesulfonylamino)-3-{3-methyl-2-[(3-phenyl-propylcarbamoyl)-methyl]-butyrylamino}-4-oxo-pentanoic acid]: the figures for the IC50 in experiment [1], in experiment [2] and in experiment [4] were 0.061 µM, 1.2 µM and 1.71 µM, respectively. For the same molecule, affinity in experiment [3] was put at a Ki of 0.0128 µM.
Taken in the same sequence, the figures for `CC(C)C(CC(=O)NCCCc1ccccc1)C(=O)NC(CC(=O)O)C(=O)COc1ccc2oc(=O)ccc2c1` (centres unmarked) [Example 13, 3-{3-Methyl-2-[(3-phenyl-propylcarbamoyl)-methyl]-butyrylamino}-4-oxo-5-(2-oxo-2H-chromen-6-yloxy)-pentanoic acid] were 0.052 µM, 2.35 µM, 0.25 µM and 0.0067 µM.
On the same counts, the results for `CC(C)C(CC(=O)NO)C(=O)NC(CC(=O)O)C(=O)CNS(=O)(=O)CC12CCC(CC1=O)C2(C)C` (centres unmarked) [Example 15, 5-(7,7-Dimethyl-2-oxo-bicyclo[2.2.1]hept-1-ylmethanesulfonylamino)-3-(2-hydroxycarbamoylmethyl-3-methyl-butyrylamino)-4-oxo-pentanoic acid] are 2.05 µM, 17.5 µM, 13.1 µM and 0.441 µM.
Take `CC(C)C(CC(=O)NCCc1c[nH]c2ccccc12)C(=O)NC(CC(=O)O)C(=O)CNS(=O)(=O)CC12CCC(CC1=O)C2(C)C` (centres unmarked) [Example 16, 5-(7,7-Dimethyl-2-oxo-bicyclo[2.2.1]hept-1-ylmethanesulfonylamino)-3-(2-{[2-(1H-indol-3-yl)-ethylcarbamoyl]-methyl}-3-methyl-butyrylamino)-4-oxo-pentanoic acid]: the IC50 came out at 0.0051 µM in experiment [1], 0.35 µM in experiment [2] and 1.47 µM in experiment [4]. For the same molecule, in experiment [3], the Ki turned out to be 0.0025 µM.
